Legend:
[1] = biological target: T1, Alpha-1A adrenergic receptor (Homo sapiens, UniProt P35348); format: functional, cell-based
T1 sequence (P35348 whole entry): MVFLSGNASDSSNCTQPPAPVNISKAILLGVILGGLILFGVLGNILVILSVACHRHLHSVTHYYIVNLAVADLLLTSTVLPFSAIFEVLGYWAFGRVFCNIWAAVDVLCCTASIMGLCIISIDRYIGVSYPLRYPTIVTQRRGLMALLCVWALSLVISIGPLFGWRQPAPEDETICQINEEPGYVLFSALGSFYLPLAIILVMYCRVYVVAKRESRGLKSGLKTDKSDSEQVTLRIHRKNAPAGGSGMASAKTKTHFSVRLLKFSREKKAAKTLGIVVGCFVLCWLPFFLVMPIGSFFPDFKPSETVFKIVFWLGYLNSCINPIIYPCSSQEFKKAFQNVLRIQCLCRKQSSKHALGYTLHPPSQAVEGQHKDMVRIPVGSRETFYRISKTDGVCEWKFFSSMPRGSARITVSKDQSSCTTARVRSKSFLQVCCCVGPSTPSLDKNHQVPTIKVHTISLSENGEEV

[2] = biological target: Sodium-dependent serotonin transporter (Homo sapiens, UniProt P31645)
[3] = biological target: T2, Cholecystokinin receptor type A (Homo sapiens, UniProt P32238)
T2 sequence (P32238 whole entry): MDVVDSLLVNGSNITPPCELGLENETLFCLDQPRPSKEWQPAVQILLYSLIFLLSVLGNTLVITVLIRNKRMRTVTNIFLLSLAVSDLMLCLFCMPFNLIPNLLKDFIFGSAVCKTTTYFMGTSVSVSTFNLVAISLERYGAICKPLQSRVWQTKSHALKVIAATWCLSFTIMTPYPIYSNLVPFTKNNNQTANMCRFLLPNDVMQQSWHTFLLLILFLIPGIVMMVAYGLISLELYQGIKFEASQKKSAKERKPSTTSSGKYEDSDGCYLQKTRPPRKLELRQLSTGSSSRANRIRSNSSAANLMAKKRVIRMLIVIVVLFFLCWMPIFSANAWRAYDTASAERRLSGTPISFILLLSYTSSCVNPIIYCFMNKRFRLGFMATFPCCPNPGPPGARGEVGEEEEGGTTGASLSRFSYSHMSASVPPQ

[4] = biological target: Gamma-aminobutyric acid receptor subunit alpha-1 (Rattus norvegicus, UniProt P62813); format: functional
[5] = biological target: T3, Type-1 angiotensin II receptor (Homo sapiens, UniProt P30556)
T3 sequence (P30556 whole entry): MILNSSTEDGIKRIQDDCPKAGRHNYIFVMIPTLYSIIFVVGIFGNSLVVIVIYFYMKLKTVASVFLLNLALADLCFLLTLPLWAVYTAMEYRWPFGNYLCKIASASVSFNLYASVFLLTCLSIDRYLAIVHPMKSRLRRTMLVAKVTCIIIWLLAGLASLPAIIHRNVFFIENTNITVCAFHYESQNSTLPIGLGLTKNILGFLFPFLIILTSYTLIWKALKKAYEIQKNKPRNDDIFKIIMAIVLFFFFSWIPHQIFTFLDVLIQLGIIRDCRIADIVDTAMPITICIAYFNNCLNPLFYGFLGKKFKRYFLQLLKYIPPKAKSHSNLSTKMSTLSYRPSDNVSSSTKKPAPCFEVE

Endothelin-1 receptor = biological target: T4, Endothelin-1 receptor (Homo sapiens, UniProt P25101)
T4 sequence (P25101 whole entry): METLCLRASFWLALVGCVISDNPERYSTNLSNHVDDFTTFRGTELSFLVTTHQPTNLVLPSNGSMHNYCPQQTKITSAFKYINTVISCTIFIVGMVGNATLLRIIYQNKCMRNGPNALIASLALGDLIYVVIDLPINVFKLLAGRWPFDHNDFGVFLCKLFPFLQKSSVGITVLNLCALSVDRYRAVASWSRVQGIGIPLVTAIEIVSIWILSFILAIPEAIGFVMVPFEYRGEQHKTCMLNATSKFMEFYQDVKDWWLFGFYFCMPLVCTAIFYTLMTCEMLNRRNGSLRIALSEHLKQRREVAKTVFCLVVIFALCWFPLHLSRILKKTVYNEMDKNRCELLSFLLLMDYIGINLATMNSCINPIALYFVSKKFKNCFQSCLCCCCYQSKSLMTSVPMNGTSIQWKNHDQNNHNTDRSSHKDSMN

[6] = biological target: T5, Equilibrative nucleoside transporter 1 (Homo sapiens, UniProt Q99808)
T5 sequence (Q99808 whole entry): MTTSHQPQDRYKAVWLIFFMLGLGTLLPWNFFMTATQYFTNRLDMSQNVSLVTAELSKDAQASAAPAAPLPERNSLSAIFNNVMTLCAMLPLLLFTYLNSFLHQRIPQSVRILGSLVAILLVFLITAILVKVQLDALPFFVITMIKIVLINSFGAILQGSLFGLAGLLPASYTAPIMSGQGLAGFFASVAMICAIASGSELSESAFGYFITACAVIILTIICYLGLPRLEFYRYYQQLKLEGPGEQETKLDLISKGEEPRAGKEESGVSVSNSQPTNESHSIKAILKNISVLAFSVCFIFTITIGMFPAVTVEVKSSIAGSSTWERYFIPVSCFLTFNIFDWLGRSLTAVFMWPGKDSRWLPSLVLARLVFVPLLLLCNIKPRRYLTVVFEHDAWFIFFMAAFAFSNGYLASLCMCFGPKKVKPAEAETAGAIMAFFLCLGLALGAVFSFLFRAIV

[7] = biological target: Growth hormone secretagogue receptor type 1 (Homo sapiens, UniProt Q92847)
Adenosine receptor A1 = biological target: T6, Adenosine receptor A1 (Homo sapiens, UniProt P30542)
T6 sequence (P30542 whole entry): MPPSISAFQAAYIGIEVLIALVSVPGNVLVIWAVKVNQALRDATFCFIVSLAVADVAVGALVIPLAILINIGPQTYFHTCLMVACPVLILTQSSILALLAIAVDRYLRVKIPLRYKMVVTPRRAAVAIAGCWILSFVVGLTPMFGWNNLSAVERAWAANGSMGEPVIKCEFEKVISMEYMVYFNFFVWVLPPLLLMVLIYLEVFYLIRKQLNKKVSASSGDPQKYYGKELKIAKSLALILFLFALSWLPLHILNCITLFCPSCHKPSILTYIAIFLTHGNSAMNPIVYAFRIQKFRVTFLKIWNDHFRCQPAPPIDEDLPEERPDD

[8] = biological target: Glutamate receptor ionotropic, NMDA 1 (Rattus norvegicus, UniProt P35439)
Further: assay procedure not described here.

Chain of Sodium-dependent serotonin transporter (P31645 whole entry): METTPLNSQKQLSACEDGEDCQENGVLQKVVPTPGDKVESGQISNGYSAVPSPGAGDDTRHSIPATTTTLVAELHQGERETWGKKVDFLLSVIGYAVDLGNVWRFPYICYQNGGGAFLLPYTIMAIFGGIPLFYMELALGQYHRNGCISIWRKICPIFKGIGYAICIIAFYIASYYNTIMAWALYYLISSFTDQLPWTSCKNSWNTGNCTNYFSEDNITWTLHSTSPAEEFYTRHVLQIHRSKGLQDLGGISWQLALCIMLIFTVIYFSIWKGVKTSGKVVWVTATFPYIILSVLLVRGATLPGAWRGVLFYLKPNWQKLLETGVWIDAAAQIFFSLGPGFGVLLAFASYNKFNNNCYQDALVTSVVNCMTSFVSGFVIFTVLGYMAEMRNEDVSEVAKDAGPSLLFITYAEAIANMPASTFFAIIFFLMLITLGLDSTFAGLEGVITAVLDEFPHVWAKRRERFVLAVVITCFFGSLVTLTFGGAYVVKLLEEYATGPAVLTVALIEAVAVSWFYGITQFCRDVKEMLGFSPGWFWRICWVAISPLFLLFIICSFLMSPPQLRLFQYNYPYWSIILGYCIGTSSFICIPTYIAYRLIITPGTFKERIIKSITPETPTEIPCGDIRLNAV
Chain of Growth hormone secretagogue receptor type 1 (Q92847 whole entry): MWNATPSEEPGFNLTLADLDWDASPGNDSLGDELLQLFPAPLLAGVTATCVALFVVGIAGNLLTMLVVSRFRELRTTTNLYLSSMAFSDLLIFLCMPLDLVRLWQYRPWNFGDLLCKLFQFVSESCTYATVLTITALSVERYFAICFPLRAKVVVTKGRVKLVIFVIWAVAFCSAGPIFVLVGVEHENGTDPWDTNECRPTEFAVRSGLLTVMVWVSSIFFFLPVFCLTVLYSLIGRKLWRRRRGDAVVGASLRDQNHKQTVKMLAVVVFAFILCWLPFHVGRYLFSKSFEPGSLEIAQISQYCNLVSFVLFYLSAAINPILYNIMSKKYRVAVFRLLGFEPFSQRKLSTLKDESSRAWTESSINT
Chain of Gamma-aminobutyric acid receptor subunit alpha-1 (P62813 whole entry): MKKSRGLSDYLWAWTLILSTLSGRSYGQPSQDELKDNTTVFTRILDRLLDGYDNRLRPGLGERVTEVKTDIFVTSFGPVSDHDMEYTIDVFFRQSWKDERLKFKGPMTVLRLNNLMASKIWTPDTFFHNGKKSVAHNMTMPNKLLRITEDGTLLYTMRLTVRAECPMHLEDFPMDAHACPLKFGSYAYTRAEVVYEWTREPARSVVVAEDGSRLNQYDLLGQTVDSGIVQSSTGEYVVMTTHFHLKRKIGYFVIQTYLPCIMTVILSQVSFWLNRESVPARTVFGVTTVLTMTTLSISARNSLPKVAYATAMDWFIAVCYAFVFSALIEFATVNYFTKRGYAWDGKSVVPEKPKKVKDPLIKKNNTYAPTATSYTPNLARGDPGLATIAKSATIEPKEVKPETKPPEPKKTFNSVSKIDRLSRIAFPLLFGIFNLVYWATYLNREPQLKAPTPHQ

| Structure (SMILES) | AC50 [1] [µM] | AC50 [2] [µM] | AC50 [3] [µM] | AC50 [4] [µM] | AC50 [5] [µM] | AC50 (Endothelin-1 receptor) [µM] | AC50 [6] [µM] | AC50 [7] [µM] | AC50 (Adenosine receptor A1) [µM] | AC50 [8] [µM] |
| --- | --- | --- | --- | --- | --- | --- | --- | --- | --- | --- |
| CN1CCC[C@@H]1Cc1c[nH]c2ccc(CCS(=O)(=O)c3ccccc3)cc12 | > 30 | > 30 | – | – | – | – | – | – | – | – |
| COc1nccnc1NS(=O)(=O)c1ccc(N)cc1 | > 30 | > 30 | – | – | – | – | – | – | – | – |
| O=C(Nc1cccc2c(=O)cc(-c3nnn[nH]3)oc12)c1ccc(OCCCCc2ccccc2)cc1 | > 30 | – | – | – | – | – | – | – | – | – |
| NC(=O)c1nc(F)c[nH]c1=O | > 30 | > 30 | – | – | – | – | – | – | – | – |
| CN(C)CCCN1C(=O)c2cc([N+](=O)[O-])ccc2Oc2ccccc21 | > 30 | 0.271 | – | – | – | – | – | – | – | – |
| CC(/C=C1\SC(=S)N(CC(=O)O)C1=O)=C\c1ccccc1 | – | – | > 30 | > 30 | 1.5 | > 30 | 15 | > 30 | 15 | > 30 |
| O=S(=O)(O)CCS [2-MERCAPTOETHANESULFONIC ACID] | > 30 | – | – | – | – | – | – | – | – | – |
| CNCC[C@@H](Oc1ccccc1C)c1ccccc1 [ATOMOXETINE] | – | – | > 30 | – | > 30 | > 30 | – | > 30 | > 30 | – |
| O=C(O)COc1nn(Cc2ccccc2)c2ccccc12 [BENDAZAC] | > 30 | > 30 | – | – | – | – | – | – | – | – |
| Cc1ccc([C@@H]2O[C@H](CO)[C@@H](O)[C@H](O)[C@H]2O)cc1Cc1ccc(-c2ccc(F)cc2)s1 [CANAGLIFLOZIN ANHYDROUS] | > 30 | 26.1 | – | – | – | – | – | – | – | – |
| C=C(C)[C@@H]1CCC(C)=C[C@H]1c1c(O)cc(CCCCC)cc1O [CANNABIDIOL] | – | – | 18.3 | > 30 | > 30 | > 30 | > 30 | > 30 | > 30 | – |
| CO/N=C(\C(=O)N[C@@H]1C(=O)N2C(C(=O)O)=C(COC(N)=O)CS[C@H]12)c1ccco1 [CEFUROXIME] | – | – | > 30 | > 30 | > 30 | > 30 | > 30 | > 30 | > 30 | > 30 |
| O=C(O)CCCc1ccc(N(CCCl)CCCl)cc1 [CHLORAMBUCIL] | > 30 | – | – | – | – | – | – | – | – | – |
| CN(C)CCN(Cc1ccc(Cl)cc1)c1ccccn1 [CHLOROPYRAMINE] | > 30 | 0.0202 | – | – | – | – | – | – | – | – |
| O=C(O)c1cc(=O)c2ccccc2o1 [CHROMOCARB] | > 30 | > 30 | – | – | – | – | – | – | – | – |
| CN(CC(=O)O)C(=N)N [CREATINE] | > 30 | > 30 | – | – | – | – | – | – | – | – |
| N[C@@H](CSSC[C@H](N)C(=O)O)C(=O)O [CYSTINE] | > 30 | > 30 | – | – | – | – | – | – | – | – |

| Structure (SMILES) | AC50 [1] [µM] | AC50 [2] [µM] | AC50 [3] [µM] | AC50 [4] [µM] | AC50 [5] [µM] | AC50 (Endothelin-1 receptor) [µM] | AC50 [6] [µM] | AC50 [7] [µM] | AC50 (Adenosine receptor A1) [µM] | AC50 [8] [µM] |
| --- | --- | --- | --- | --- | --- | --- | --- | --- | --- | --- |
| Cn1c(=O)c2c(ncn2CC(O)CO)n(C)c1=O (stereo not given) [DYPHYLLINE] | > 30 | – | – | – | – | – | – | – | – | – |
| C[C@]12CC[C@@H]3c4ccc(O)cc4CC[C@H]3[C@@H]1CC[C@@H]2OC(=O)CCC1CCCC1 [ESTRADIOL CYPIONATE] | > 30 | > 30 | – | – | – | – | – | – | – | – |
| CCC(=O)O[C@@H](O[P@](=O)(CCCCc1ccccc1)CC(=O)N1C[C@H](C2CCCCC2)C[C@H]1C(=O)O)C(C)C [FOSINOPRIL] | – | > 30 | – | > 30 | – | – | – | – | – | > 30 |
| Nc1nc(O)c2ncn(COC(CO)CO)c2n1 [GANCICLOVIR] | – | – | > 30 | > 30 | > 30 | > 30 | > 30 | > 30 | > 30 | > 30 |
| CC1(C)O[C@@H]2C[C@H]3[C@@H]4CCC5=CC(=O)CC[C@]5(C)[C@@]4(F)[C@@H](O)C[C@]3(C)[C@]2(C(=O)CCl)O1 [HALCINONIDE] | > 30 | – | – | – | – | – | – | – | – | – |
| CC[C@@H](CO)NC(=O)[C@@H]1C=C2c3cccc4[nH]cc(c34)C[C@H]2N(C)C1 [METHYLERGONOVINE] | – | – | > 30 | > 30 | > 30 | > 30 | – | > 30 | > 30 | > 30 |
| CCOc1cc(N)c(Cl)cc1C(=O)NCC1CN(Cc2ccc(F)cc2)CCO1 (stereo not given) [MOSAPRIDE] | > 30 | – | – | – | – | – | – | – | – | – |
| CN1CCC[C@H]1c1cccnc1 [NICOTINE] | > 30 | – | – | – | – | – | – | – | – | – |
| C#C[C@]1(O)CC[C@H]2[C@@H]3CCC4=C(CCC(=O)C4)[C@H]3CC[C@@]21C [NORETHYNODREL] | > 30 | – | – | – | – | – | – | – | – | – |
| CNCCC=C1c2ccccc2CCc2ccccc21 [NORTRIPTYLINE] | – | – | > 30 | > 30 | > 30 | > 30 | > 30 | > 30 | > 30 | – |
| CN(C)c1cc(CNCC(C)(C)C)c(O)c2c1C[C@H]1C[C@H]3[C@H](N(C)C)C(O)=C(C(N)=O)C(=O)[C@@]3(O)C(O)=C1C2=O [OMADACYCLINE] | – | > 30 | > 30 | > 30 | > 30 | > 30 | > 10 | > 30 | > 30 | > 30 |
| COc1ccc(Cc2nccc3cc(OC)c(OC)cc23)cc1OC [PAPAVERINE] | – | – | > 30 | > 30 | > 30 | > 30 | 10 | > 30 | > 30 | > 30 |
| CNC(=O)c1cc(Oc2ccc(NC(=O)Nc3ccc(Cl)c(C(F)(F)F)c3)c(F)c2)ccn1 [REGORAFENIB] | – | > 30 | – | – | – | – | – | – | – | – |
| O=C(Nc1c(Cl)cncc1Cl)c1ccc(OC(F)F)c(OCC2CC2)c1 [ROFLUMILAST] | – | – | > 30 | > 30 | > 30 | > 30 | – | > 30 | > 30 | > 30 |
| CCCCCCCCNC(C)C(O)c1ccc(SC(C)C)cc1 (stereo not given) [SULOCTIDIL] | 11 | – | – | – | – | – | – | – | – | – |
| CN1CCN(CCCN2c3ccccc3Sc3ccc(S(=O)(=O)N(C)C)cc32)CC1 [THIOPROPERAZINE] | – | 17.3 | – | > 30 | – | – | – | – | – | > 10 |
| Cc1cc(CC(=O)O)n(C)c1C(=O)c1ccc(Cl)cc1 [ZOMEPIRAC] | – | – | > 30 | > 30 | > 30 | > 30 | > 30 | > 30 | > 30 | > 30 |
